Holding throughout (type): cell-based
One data set relates to RAMOS. The data set is described as follows: Cytotoxicity MTS, leukemias/lymphomas, RAMOS. The note with it: 4-Parameter Curve Fit, NA = not active, read-out: Cytotoxicity IC50 Lymphoma (Burkitts B cell) RAMOS.
A further data set deals with P3HR1. The data set is described as follows: Cytotoxicity MTS, leukemias/lymphomas, P3HR1. Conditions: 4-Parameter Curve Fit, NA = not active, read-out: Cytotoxicity IC50 Lymphoma (Burkitts ascites) P3HR1.
For a further data set, the system named is Hut 78. The data set is described as follows: Cytotoxicity MTS, leukemias/lymphomas, Hut 78. The note with it: 4-Parameter Curve Fit, NA = not active, read-out: Cytotoxicity IC50 Lymphoma (Cutaneous T cell) Hut 78.
The test system of another data set is K562. The data set is described as follows: Cytotoxicity MTS, leukemias/lymphomas, K562. The note with it: 4-Parameter Curve Fit, NA = not active, read-out: Cytotoxicity IC50 CML (Chronic myelogenous) K562.
A further data set has as its system ARH-77. The data set is described as follows: Cytotoxicity MTS, leukemias/lymphomas, ARH-77. Conditions: 4-Parameter Curve Fit, NA = not active, read-out: Cytotoxicity IC50 Leukemia (Plasma cell) ARH-77.
In another data set the test system is HL-60. The data set is described as follows: Cytotoxicity MTS, leukemias/lymphomas, HL-60. Conditions: read-out: Cytotoxicity IC50 AML (acute promyelocytic leukemia) HL-60, 4-Parameter Curve Fit, NA = not active, read-out: Cytotoxicity IC50 ALL (Promyelocytic leukemia) HL-60.
A further data set relates to U-937. The data set is described as follows: Cytotoxicity MTS, leukemias/lymphomas, U-937. The note with it: 4-Parameter Curve Fit, NA = not active, read-out: Cytotoxicity IC50 Lymphoma (Histiocytic) U-937.
In the next data set the test system is H9. The data set is described as follows: Cytotoxicity MTS, leukemias/lymphomas, H9. Conditions: 4-Parameter Curve Fit, NA = not active, read-out: Cytotoxicity IC50 Lymphoma (T cell) H9.
Another data set deals with Molt 3. The data set is described as follows: Cytotoxicity MTS, leukemias/lymphomas, Molt 3. The note with it: 4-Parameter Curve Fit, NA = not active, read-out: Cytotoxicity IC50 ALL (Acute lymphobalstic) Molt 3.
The subject of a further data set is MC116. The data set is described as follows: Cytotoxicity MTS, leukemias/lymphomas, MC116. Conditions: 4-Parameter Curve Fit, NA = not active, read-out: Cytotoxicity IC50 Lymphoma (undifferentiated) MC116.
The subject of the next data set is 786-O. The data set is described as follows: Cytotoxicity MTS, solid tumors, Renal 786-O. Conditions: 4-Parameter Curve Fit, NA = not active.
In another data set the test system is SK-OV-3. The data set is described as follows: Cytotoxicity MTS, solid tumors, Ovary SK-OV-3. Conditions: 4-Parameter Curve Fit, NA = not active.
A further data set concerns HT-29. The data set is described as follows: Cytotoxicity MTS, solid tumors, Colon HT-29. Conditions: 4-Parameter Curve Fit, NA = not active.
A further data set relates to MX-1. The data set is described as follows: Cytotoxicity MTS, solid tumors, Breast MX-1. The note with it: 4-Parameter Curve Fit, NA = not active.
The subject of another data set is FADU. The data set is described as follows: Cytotoxicity MTS, solid tumors, Pharynx FADU. The note with it: 4-Parameter Curve Fit, NA = not active.
In another data set the test system is Hs746t. The data set is described as follows: Cytotoxicity MTS, solid tumors, Gastric Hs746t. Conditions: 4-Parameter Curve Fit, NA = not active.
The subject of another data set is SK-HEP-1. The data set is described as follows: Cytotoxicity MTS, solid tumors, Liver SK-HEP-1. Conditions: 4-Parameter Curve Fit, NA = not active.
For the next data set, the system named is A549. The data set is described as follows: Cytotoxicity MTS, solid tumors, NSCL A549. The note with it: 4-Parameter Curve Fit, NA = not active.
The subject of another data set is PC-3. The data set is described as follows: Cytotoxicity MTS, solid tumors, Prostate PC-3. The note with it: 4-Parameter Curve Fit, NA = not active.
The test system of another data set is Y-79. The data set is described as follows: Cytotoxicity MTS, solid tumors, Retinoblastoma Y-79. Conditions: 4-Parameter Curve Fit, NA = not active.
The subject of a further data set is Mel-28. The data set is described as follows: Cytotoxicity MTS, solid tumors, Melanoma Mel-28. Conditions: 4-Parameter Curve Fit, NA = not active.
A further data set deals with 5637. The data set is described as follows: Cytotoxicity MTS, solid tumors, Bladder 5637. The note with it: 4-Parameter Curve Fit, NA = not active.
The subject of the next data set is CHSA. The data set is described as follows: Cytotoxicity MTS, solid tumors, Chondrosarcoma CHSA. The note with it: 4-Parameter Curve Fit, NA = not active.
A further data set relates to DU-145. The data set is described as follows: Cytotoxicity MTS, solid tumors, Prostate DU-145. The note with it: 4-Parameter Curve Fit, NA = not active.

As usually defined, the IC50 is the midpoint of a concentration-inhibition curve. On to `CCCCCCCCCCCCCCCC(O)C(C)N` (centres unmarked), for which the half-maximal inhibitory concentration (IC50) was found to be 2.14 µM in the data set on RAMOS; 3.37 µM with P3HR1; 2.16 µM in the data set on Hut 78; 0.784 µM with K562; 0.682 µM in the data set with ARH-77; 0.425 µM in the data set with HL-60. Besides, the results for the IC50 in the data set with U-937 and in the data set with H9 were 0.981 µM and 1.55 µM, respectively.
Take `CCCCCCCCCCCCCCCCC(O)C(C)N` (centres unmarked): the half-maximal inhibitory concentration (IC50) stood at 1.12 µM in the data set on Molt 3, 10.6 µM in the data set with Hut 78, 8.82 µM in the data set on MC116 and 0.0298 µM in the data set on U-937.
Consider `CCCCCCCCCCCCCCCC(=O)C(N)CC` (centres unmarked), for which the concentration for half-maximal inhibition (IC50) came out at 1.21 µM with RAMOS, 0.581 µM in the data set on Molt 3 and 5.98 µM in the data set on H9.
For the molecule `CCCCCCCCCCCCCCC[C@@H](O)[C@H](C)N` [drawing 112], the concentration for half-maximal inhibition (IC50) in the data set with 786-O was determined as 0.138 µM; in the data set on SK-OV-3 it was 0.702 µM; in the data set with HT-29, 0.128 µM; with MX-1 it was 1.95 µM; in the data set with FADU, 0.249 µM; with Hs746t, 0.395 µM. For the same molecule, the half-maximal inhibitory concentration (IC50) in the data set with SK-HEP-1 came out at 0.297 µM; with A549 it was 0.0857 µM.
For `CCCCCCCCCCCCCCC[C@@H](O)[C@@H](N)CF` [drawing 122], the half-inhibitory concentration (IC50) is 21.8 µM in the data set with PC-3; 3.3 µM in the data set on 786-O; 1.65 µM in the data set on Y-79; 2.54 µM with Mel-28; 4.29 µM in the data set with MX-1; 1.45 µM in the data set on 5637. The IC50 in the data set with CHSA stood at 4.62 µM; in the data set with FADU, 3.96 µM; in the data set on Hs746t, 16.2 µM; in the data set with SK-HEP-1 it was 15.5 µM; in the data set with DU-145 it was 0.0495 µM.
Turning to `CCCCCCCCCCCCCCCCCC(=O)[C@H](C)N` [drawing 131], the IC50 in the data set on RAMOS stood at 1.65 µM; in the data set on Molt 3, 14.3 µM; in the data set on H9, 2.59 µM.
Take `CCCCCCCCCCCCCCC[C@@H](O)[C@@H](N)CF` [drawing 133]: the half-maximal inhibitory concentration (IC50) with HL-60 was 1.29 µM.

The values are drawn from patent publication US20040048834A1, “Antitumoral compounds” (priority 2000, published 2004).
